Assay results from US7875618B2, “Substituted imidazo[1,5-a]quinoxalines useful as inhibitors of phosphodiesterase 10 for the treatment of neurological and other disorders” (Wyeth, priority 2007, dated 2011).

Legend:
[1] = biological target: PDE10 from pig striatum (Sus scrofa, UniProt A0A287B941); test: Inhibition of PDE10 from pig striatum ([3H]-cAMP SPA, Methods A and B); format: biochemical; conditions: PDE10 pig
Procedure: Striatum from male Wistar rats (180-200 g), male hybrid pigs (150 kg) and male guinea pigs (CRL (HA), 500 g) respectively were collected and frozen at −70° C. At the day of preparation 0.5 g striatum was homogenised in 10 ml 50 mM Tris/Mg-buffer at 4° C. and centrifuged for one hour at 100000 g. The supernatant is called the cytosolic fraction and was removed and stored on ice. The pellet was resuspended in the same buffer, but containing 1% Triton and incubated for 45 min at 4° C. Both fractions were independently applied onto a 5 ml Hi Trap™ QHP column at the Äkta-FPLC. After washing the columns the bound PDE protein was eluted with an increasing sodium chloride gradient (0 mM-500 mM sodium chloride) in 50 mM Tris/Mg-buffer at 4° C. for the cytosolic fraction and in the presence of 1% Triton for the membrane fraction. […] The fractions with PDE10-activity were pooled and frozen in aliquots until use at −20° C. PDE10 activity was determined in a one step procedure in microtiter plates. […] Nonspecific activity was tested without the enzyme. The reaction was initiated by addition of the substrate solution and was carried out at 37° C. for 30 minutes. Enzymatic activity was stopped by addition of 25 μl YSi-SPA-beads (Amersham-Pharmacia). One hour later the mixture was measured in a liquid scintillation counter for microtiter plates (Microbeta Trilux). To pipette the incubation mixture a robot Biomek (Fa. Beckman) is used. […] For determination of IC50 values the Hill-plot, 2-parameter-model, was used. […] Striatum from male hybrid pigs (150 kg) were collected and frozen at −70° C. At the day of preparation 0.5 g striatum was homogenised in 10 ml 50 mM Tris/Mg-buffer at 4° C. and centrifuged for one hour at 100000 g. The supernatant was removed and the pellet was resuspended in the same buffer, but containing 1% Triton and incubated for 45 min at 4° C. The membrane fraction was applied onto a 5 ml Hi Trap™ QHP column at the Äkta-FPLC. After washing the column the bound PDE protein was eluted with an increasing sodium chloride gradient (0 mM-500 mM sodium chloride) in 50 mM Tris/Mg-buffer at 4° C. in the presence of 1% Triton. […] The fractions with PDE10-activity were pooled and frozen in aliquots until use at −20° C. PDE10 activity was determined in a one step procedure in microtiterplates. […] Nonspecific activity was tested without the enzyme. The reaction was initiated by addition of the substrate solution and was carried out at 37° C. for 30 minutes. Enzymatic activity was stopped by addition of 25 μl YSi-SPA-beads (Amersham-Pharmacia). One hour later the mixture was measured in a liquid scintillation counter for microtiterplates (Microbeta Trilux). To pipette the incubation mixture a robot Biomek (Fa. Beckman) is used. […] For determination of IC50 values the Hill-plot, 2-parameter-model, was used.

[2] = biological target: T1, human recombinant PDE10A (Homo sapiens, UniProt Q9Y233); test: Inhibition of human recombinant PDE10A ([3H]-cAMP SPA, Method B); format: biochemical; conditions: read-out: PDE10 inhibition IC50 [nM] PDE10A human
T1 construct: made in house; host or cells: SF21 insect cells (baculovirus)
T1 sequence (Q9Y233 1-779 isoform Q9Y233-1): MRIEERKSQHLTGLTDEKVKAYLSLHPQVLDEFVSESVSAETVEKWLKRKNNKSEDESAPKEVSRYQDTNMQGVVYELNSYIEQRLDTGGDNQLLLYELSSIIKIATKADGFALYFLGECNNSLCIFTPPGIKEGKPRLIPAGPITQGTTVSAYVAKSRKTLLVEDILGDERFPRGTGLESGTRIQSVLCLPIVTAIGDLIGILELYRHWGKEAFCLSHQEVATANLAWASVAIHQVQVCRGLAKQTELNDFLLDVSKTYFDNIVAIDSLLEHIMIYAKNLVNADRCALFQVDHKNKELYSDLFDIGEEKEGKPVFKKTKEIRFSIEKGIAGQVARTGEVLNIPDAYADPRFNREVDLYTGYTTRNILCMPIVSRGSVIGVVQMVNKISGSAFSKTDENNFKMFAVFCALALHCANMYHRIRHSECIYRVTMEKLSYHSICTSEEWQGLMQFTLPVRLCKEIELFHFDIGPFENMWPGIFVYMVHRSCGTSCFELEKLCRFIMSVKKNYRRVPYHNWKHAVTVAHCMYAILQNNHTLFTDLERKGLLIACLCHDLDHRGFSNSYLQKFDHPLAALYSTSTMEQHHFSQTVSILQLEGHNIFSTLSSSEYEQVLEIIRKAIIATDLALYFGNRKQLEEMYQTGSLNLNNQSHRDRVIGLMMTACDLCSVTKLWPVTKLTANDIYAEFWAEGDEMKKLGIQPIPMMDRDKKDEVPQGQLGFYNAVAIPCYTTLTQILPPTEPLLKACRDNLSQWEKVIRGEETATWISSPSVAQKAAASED
Procedure: The gene was than inserted into a baculovirus vector, ligated with the baculovirus DNA. The enzyme-protein was expressed in SF21-cells. The enzyme was isolated from these cells by harvesting the cells by a centrifugation at 200 g to collect the cells. The cells were resuspended in 50 mM Tris-HCl/5 mM MgCl2 buffer (pH=7.4) and lysed by a sonication of the cells. The cytosolic PDE10A was obtained by a centrifugation at 48000 g for 1 h in the supernatant and stored at −70° C. PDE10 activity was determined in a one step procedure in microtiterplates. […] Nonspecific activity was tested without the enzyme. The reaction was initiated by addition of the substrate solution and was carried out at 37° C. for 30 minutes. Enzymatic activity was stopped by addition of 25 μl YSi-SPA-beads (Amersham-Pharmacia). One hour later the mixture was measured in a liquid scintillation counter for microtiterplates (Microbeta Trilux). To pipette the incubation mixture a robot Biomek (Fa. Beckman) is used. […] For determination of IC50 values the Hill-plot, 2-parameter-model, was used.

Compound | IC50 [1] | IC50 [2] | melting point
7-Methoxy-3-methyl-1-propyl-imidazo[1,5-a]quinoxalin-4-ylamine [Example 41] | 10 to 100 nM | 10 to 100 nM | –
CCc1nc(C)c2c(N)nc3ccc(N4CCCCC4)cc3n12 [Example 1, 1-Ethyl-3-methyl-8-piperidin-1-yl-imidazo(1,5-a)quinoxalin-4-ylamine] | ≥ 100 nM | – | –
Cc1nc(C2CCCCC2)n2c1c(N)nc1ccc(F)cc12 [Example 2, 1-Cyclohexyl-8-fluoro-3-methyl-imidazo(1,5-a)quinoxalin-4-yl-amine] | 10 to 100 nM | – | –
CCCc1nc(C)c2c(N)nc3ccc(OC)cc3n12 [Example 7, 8-Methoxy-3-methyl-1-propyl-imidazo(1,5-a)quinoxalin-4-ylamine] | – | 10 to 100 nM | 201 to 203 °C
CCCc1nc(C)c2c(C)nc3ccccc3n12 [Example 9, 3,4-Dimethyl-1-propyl-imidazo(1,5-a)quinoxaline] | 10 to 100 nM | – | –
Cc1nc(-c2ccccc2Cl)n2c1c(C)nc1ccc(F)cc12 [Example 15, 1-(2-Chlorphenyl)-3,4-dimethyl-8-fluoro-imidazo(1,5-a)quinoxaline] | ≤ 10 nM | 10 to 100 nM | –
CCCc1nc(C)c2c(OC)nc3ccc(F)cc3n12 [Example 18, 8-Fluoro-4-methoxy-3-methyl-1-propyl-imidazo(1,5-a)quin-oxaline] | 10 to 100 nM | – | –
Cc1nc(-c2ccccc2Cl)n2c1c(C)nc1cc(OCc3ccc4ccccc4n3)ccc12 [Example 58, 1-(2-Chloro-phenyl)-7-(quinolin-2-ylmethoxy)-3,4-dimethyl-imidazo(1,5-a)quinoxaline] | ≤ 10 nM | ≤ 10 nM | –
Cc1nc(-c2ccccc2Cl)n2c1c(C)nc1cc(OCc3cccc([N+](=O)[O-])c3)ccc12 [Example 59, 1-(2-Chloro-phenyl)-3,4-dimethyl-7-(3-nitrobenzyloxy)-imidazo(1,5-a)quinoxaline] | ≤ 10 nM | 10 to 100 nM | –
CNC(=O)Nc1cccc(COc2ccc3c(c2)nc(C)c2c(C)nc(-c4ccccc4Cl)n23)c1 [Example 61, N-1-{3-[1-(2-Chlorophenyl)-3,4-dimethyl-imidazo(1,5-a)quinoxalin-7-yloxymethyl]-phenyl}-N′-methyl-urea] | ≤ 10 nM | 10 to 100 nM | –
COc1cc(F)cc2c1nc(C)c1c(C)nc(-c3ccc(F)c(C(N)=O)c3)n12 [Example 86, 2-fluoro-5-(8-fluoro-6-methoxy-3,4-dimethylimidazo[1,5-a]quinoxalin-1-yl)benzamide] | ≤ 10 nM | – | –
CCc1nc(C)c2c(Cl)nc3ccc(N4CCCCC4)cc3n12 [Intermediate B2, 4-Chloro-1-ethyl-3-methyl-8-piperidin-1-yl-imidazo(1,5-a)quinoxaline] | 10 to 100 nM | – | –
COc1ccc2nc(Cl)c3c(C)nc(C4CCCCC4)n3c2c1 [Intermediate B11] | – | – | 212 to 215 °C
Cc1nc(C2CCCCC2)n2c1c(Cl)nc1ccc(OCC3CC3)cc12 [Intermediate B13] | – | – | 165 to 168 °C
CCCc1nc(C)c2c(Cl)nc3cc(OC)ccc3n12 [Intermediate B15] | – | – | 154 to 159 °C

The next lines start with the values.

IC50 [1] | IC50 [2] | melting point | Compound
≤ 10 nM | – | – | Cc1nc(-c2ccccc2Cl)n2c1c(N)nc1ccc(F)cc12 [Example 8, 1-(2-Chlorphenyl)-8-fluoro-3-methyl-imidazo(1,5-a)quinoxalin-4-ylamine]
10 to 100 nM | – | – | Cc1nc(-c2cc(Cl)ccc2Cl)n2c1c(C)nc1ccc(F)cc12 [Example 19, 1-(2,5-Dichlorophenyl)-8-fluoro-3,4-dimethylimidazo[1,5-a]quinoxaline]
10 to 100 nM | – | – | Cc1nc(-c2cc(Cl)cc(Cl)c2)n2c1c(C)nc1ccc(F)cc12 [Example 20, 1-(3,5-Dichlorophenyl)-8-fluoro-3,4-dimethylimidazo[1,5-a]quinoxaline]
10 to 100 nM | – | – | Cc1nc(-c2cccc(Cl)c2)n2c1c(C)nc1ccc(F)cc12 [Example 21, 1-(3-Chlorophenyl)-8-fluoro-3,4-dimethylimidazo[1,5-a]quinoxaline]
10 to 100 nM | – | – | Cc1nc(-c2ccc(F)cc2F)n2c1c(C)nc1ccc(F)cc12 [Example 22, 1-(2,4-Difluorophenyl)-8-fluoro-3,4-dimethylimidazo[1,5-a]quinoxaline]
10 to 100 nM | – | – | COc1ccccc1-c1nc(C)c2c(C)nc3ccc(F)cc3n12 [Example 23, 8-Fluoro-1-(2-methoxyphenyl)-3,4-dimethylimidazo[1,5-a]quinoxaline]
≤ 10 nM | – | – | COc1cccc(-c2nc(C)c3c(C)nc4ccc(F)cc4n23)c1 [Example 24, 8-Fluoro-1-(3-methoxyphenyl)-3,4-dimethylimidazo[1,5-a]quinoxaline]
≤ 10 nM | – | – | Cc1ccccc1-c1nc(C)c2c(C)nc3ccc(F)cc3n12 [Example 25, 8-Fluoro-3,4-dimethyl-1-(2-methylphenyl)imidazo[1,5-a]quinoxaline]
10 to 100 nM | – | – | Cc1cccc(-c2nc(C)c3c(C)nc4ccc(F)cc4n23)c1 [Example 26, 8-Fluoro-3,4-dimethyl-1-(3-methylphenyl)imidazo[1,5-a]quinoxaline]
10 to 100 nM | – | – | Cc1nc(-c2ccccc2C(F)(F)F)n2c1c(C)nc1ccc(F)cc12 [Example 27, 8-Fluoro-3,4-dimethyl-1-[2-(trifluoromethyl)phenyl]imidazo[1,5-a]quinoxaline]
10 to 100 nM | ≥ 100 nM | – | Cc1nc(-c2ccccc2OC(F)(F)F)n2c1c(C)nc1ccc(F)cc12 [Example 28, 8-Fluoro-3,4-dimethyl-1-[2-(trifluoromethoxy)phenyl]imidazo[1,5-a]quinoxaline]
10 to 100 nM | 10 to 100 nM | – | Cc1ccsc1-c1nc(C)c2c(C)nc3ccc(F)cc3n12 [Example 29, 8-Fluoro-3,4-dimethyl-1-(3-methyl-2-thienyl)imidazo[1,5-a]quinoxaline]
≥ 100 nM | – | – | Cc1noc(C)c1-c1nc(C)c2c(C)nc3ccc(F)cc3n12 [Example 30, 1-(3,5-Dimethylisoxazol-4-yl)-8-fluoro-3,4-dimethylimidazo[1,5-a]quinoxaline]
≤ 10 nM | 10 to 100 nM | – | Cc1ccccc1-c1nc(C)c2c(C)nc3c(O)cc(O)cc3n12 [Example 54, 6,8-Dihydroxy-3,4-dimethyl-1-(2-methylphenyl)-imidazo[1,5-a]quinoxaline]
10 to 100 nM | 10 to 100 nM | – | Cc1nc(-c2ccccc2Cl)n2c1c(C)nc1cc(O)ccc12 [Example 55, 1-(2-Chlorophenyl)-3,4-dimethyl-7-hydroxy-imidazo(1,5-a)quinoxaline]
≤ 10 nM | ≤ 10 nM | – | Cc1ccccc1-c1nc(C)c2c(C)nc3c(OC(F)F)cc(OC(F)F)cc3n12 [Example 56, 6,8-Bis-difluoromethoxy-3,4-dimethyl-1-(2-methylphenyl)-imidazo(1,5-a)quinoxaline]
≤ 10 nM | 10 to 100 nM | – | Cc1nc(-c2ccccc2Cl)n2c1c(C)nc1cc(OCc3c(F)cccc3F)ccc12 [Example 57, 1-(2-Chloro-phenyl)-7-(2,6-difluorobenzyloxy)-3,4-dimethyl-imidazo(1,5-a)quinoxaline]
≤ 10 nM | 10 to 100 nM | – | Cc1nc(-c2ccccc2Cl)n2c1c(C)nc1cc(OCc3cccc(N)c3)ccc12 [Example 60, 7-(3-Aminobenzyloxy)-1-(2-chlorophenyl)-3,4-dimethyl-imidazo(1,5-a)quinoxaline]
≤ 10 nM | – | – | Cc1nc(-c2ccccc2Cl)n2c1c(Cl)nc1ccc(F)cc12 [Intermediate B8]
